Target: T1, Recombinant human HSP90α (Homo sapiens, UniProt P07900)
T1 construct: host or cells: E. coli
Experiment: HSP90 radioligand filter binding test ([3H]17AAG competition)
Details: [3H]17AAG 0.08 μM, HSP90 1.5 μg/assay, 22° C., 30 min; read-out: HSP90 inhibition IC50
From the text: The binding of geldanamycin or 17-allylamino-17-demethoxygeldanamycin (17AAG) to HSP90 and competitive inhibition thereof can be utilised in order to determine the inhibitory activity of the compounds according to the invention (Carreras et al. 2003, Chiosis et al. 2002).
In the specific case, a radioligand filter binding test is used. The radioligand used here is tritium-labelled 17-allylaminogeldanamycin, [3H]17AAG. This filter binding test allows a targeted search for inhibitors which interfere with the ATP binding site.
Recombinant human HSP90α (E. coli expressed, 95% purity);
[3H]17AAG (17-allylaminogeldanamycin, [allylamino-2,3-^3H. Specific activity: 1.11×10^12 Bq/mmol (Moravek, MT-1717);
HEPES filter buffer (50 mM HEPES, pH 7.0, 5 mM MgCl2, BSA 0.01%) Multiscreen FB (1 μm) filter plate (Millipore, MAFBNOB 50).
The 96-well microtitre filter plates are firstly irrigated and coated with 0.1% of polyethylenimine.
The test is carried out under the following conditions:
Reaction temperature 22° C.
Reaction time: 30 min., shaking at 800 rpm
50 mM HEPES HCl, pH 7.0, 5 mM MgCl2, 0.01% (w/v) BSA
At the end of the reaction, the supernatant in the filter plate is removed by suction with the aid of a vacuum manifold (Multiscreen Separation System, Millipore), and the filter is washed twice.
The filter plates are then measured in a beta counter (Microbeta, Wallac) with scintillator (Microscint 20, Packard).
“% of control” is determined from the “counts per minutes” values and the IC-50 value of a compound is calculated therefrom.

| IC50 [µM] | SMILES |
| --- | --- |
| 0.9 | Fc1nc(N2CCC[C@@H]2COc2ccccc2F)c2nc[nH]c2n1 [Compound A47, 2-Fluoro-6-[(R)-2-(2-fluorophenoxy-methyl)pyrrolidin-1-yl]-9H-purine] |
| 20 | Brc1ccccc1OC[C@H]1CCCN1c1ncnc2[nH]cnc12 [Compound A52, 6-[(R)-2-(2-Bromophenoxymethyl)-pyrrolidin-1-yl]-9H-purine] |
| 30 | O[C@H]1C[C@H](COc2ccccc2)N(c2nc(Cl)nc3[nH]cnc23)C1 [Compound A53, 2-chloro-6-[(2R,4S)-2-phenoxymethyl-4-hydroxypyrrolidin-1-yl]-9H-purine] |
| 1.5 | Cc1nc(N2CCC[C@@H]2COc2ccccc2F)c2nc[nH]c2n1 [Compound A57, 2-Methyl-6-[(R)-2-(2-fluorophenoxy-methyl)pyrrolidin-1-yl]-9H-purine] |
| 6.3 | Cc1nc(N2CCC[C@@H]2COc2ccccc2Cl)c2nc[nH]c2n1 [Compound A58, 2-Methyl-6-[(R)-2-(2-chloro-phenoxymethyl)pyrrolidin-1-yl]-9H-purine] |
